Experimental data: ChEMBL document CHEMBL1201862, “PubChem BioAssay data set” (2004)
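Five compound concentrations were applied to cells in 96-well plates for 48 hours; endpoints were derived by simple linear interpolation of the resulting dose-response curve. GI50: concentration for 50% inhibition of growth.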 Activity calls are given as the source filed them. Cut-off read from the data, not from the text of the source: active = GI50 up to about 1.1 µM and inactive = higher.

How the values were obtained:
Assay in all cases: growth of human tumour cells (NCI), 48 h
[1] = tested on: 786-0
[2] = tested on: A498
[3] = tested on: ACHN
[4] = tested on: BT-549
[5] = tested on: HCT-15
[6] = tested on: Hs-578T
[7] = tested on: M14
[8] = tested on: MDA-MB-435
[9] = tested on: MOLT-4
[10] = tested on: Malme-3M
[11] = tested on: NCI-H460
[12] = tested on: NCI-H522
[13] = tested on: RXF 393
[14] = tested on: SK-MEL-5
[15] = tested on: SNB-19
[16] = tested on: T47D
[17] = tested on: UACC-257
[18] = tested on: IGROV-1
[19] = tested on: MDA-MB-231

Row | Compound | GI50 [1] | GI50 [2] | GI50 [3] | GI50 [4] | GI50 [5] | GI50 [6] | GI50 [7] | GI50 [8] | GI50 [9] | GI50 [10] | GI50 [11] | GI50 [12] | GI50 [13] | GI50 [14] | GI50 [15] | GI50 [16] | GI50 [17] | GI50 [18] | GI50 [19]
1 | CCOC(=O)Nc1cc2c(c(N)n1)N=C(c1ccc(OC)cc1)CN2 | 0.00363 µM (active) | 0.282 µM (active) | 0.00104 µM (active) | < 0.01 µM (active) | 0.000621 µM | 0.000494 µM (active) | 0.000309 µM (active) | < 0.0001 µM (active) | < 0.0001 µM (active) | 0.0101 µM (active) | 0.00226 µM (active) | 0.00277 µM (active) | 0.0112 µM (active) | < 0.0001 µM (active) | 0.000349 µM (active) | 0.582 µM (active) | 0.186 µM (active) |  | 
2 | COc1ccc(-c2c(C#N)c(-c3ccccc3)n(NS(=O)(=O)c3ccccc3)c(=O)c2C#N)cc1 | > 100 µM (inactive) | > 100 µM (inactive) | > 100 µM (inactive) | > 100 µM (inactive) | > 100 µM | 41.6 µM (inactive) | > 100 µM (inactive) | > 100 µM (inactive) | 27.6 µM (inactive) | 41.6 µM (inactive) | > 100 µM (inactive) | 20.5 µM (inactive) | 76.4 µM (inactive) | 55.1 µM (inactive) | 92.7 µM (inactive) |  | > 100 µM (inactive) | 36.3 µM (inactive) | > 100 µM (inactive)
3 | CCC(=O)Nc1ccc(NC(C#N)c2cccc(Oc3ccccc3)c2)cc1 (centres undefined) | 35.5 µM (inactive) | > 100 µM (inactive) | 32.7 µM (inactive) | 57.7 µM (inactive) | 45 µM | 67.3 µM (inactive) | 40.3 µM (inactive) | 35.5 µM (inactive) | 4.29 µM (inactive) | 26.1 µM (inactive) |  | 48 µM (inactive) | 38.6 µM (inactive) | 22.6 µM (inactive) | > 100 µM (inactive) | 42.3 µM (inactive) |  | 48.2 µM (inactive) | 
4 | C=CCc1c(O)c2ccccc2[nH]c1=O | > 100 µM (inactive) | > 100 µM (inactive) | > 100 µM (inactive) | > 100 µM (inactive) | > 100 µM | > 100 µM (inactive) |  | > 100 µM (inactive) | > 100 µM (inactive) | > 100 µM (inactive) | > 100 µM (inactive) | > 100 µM (inactive) |  | > 100 µM (inactive) | > 100 µM (inactive) |  | > 100 µM (inactive) | > 100 µM (inactive) | > 100 µM (inactive)
5 | Cc1ccc(C(=O)Oc2ccc(/C=C3\CCC/C(=C\c4ccc(OC(=O)c5ccc(C)cc5)cc4)C3=O)cc2)cc1 | > 100 µM (inactive) |  | > 100 µM (inactive) | > 100 µM (inactive) | > 100 µM | > 100 µM (inactive) | > 100 µM (inactive) | > 100 µM (inactive) | > 100 µM (inactive) |  | > 100 µM (inactive) | > 100 µM (inactive) |  | > 100 µM (inactive) | > 100 µM (inactive) | > 100 µM (inactive) | > 100 µM (inactive) | > 100 µM (inactive) | > 100 µM (inactive)
6 | Nc1sc2c(c1C(=O)c1ccc(Cl)c(Cl)c1)CCCC2 | 68.7 µM (inactive) |  | 67.3 µM (inactive) | 20.3 µM (inactive) | 50.6 µM | 70.8 µM (inactive) | 44.1 µM (inactive) | 30.8 µM (inactive) | 21.7 µM (inactive) | 59.4 µM (inactive) | 40.1 µM (inactive) | 21 µM (inactive) | 27.2 µM (inactive) |  | 64.1 µM (inactive) | 36.2 µM (inactive) | 54.8 µM (inactive) |  | > 100 µM (inactive)
7 | CN(C)/C=C1\CCc2ccc([N+](=O)[O-])cc2C1=O | 48.6 µM (inactive) | > 100 µM (inactive) | > 100 µM (inactive) |  | 44 µM | > 100 µM (inactive) | 89.9 µM (inactive) | 19.1 µM (inactive) | 25.1 µM (inactive) | 33 µM (inactive) | 28.4 µM (inactive) | > 100 µM (inactive) | > 100 µM (inactive) | 92.9 µM (inactive) | > 100 µM (inactive) | 26.7 µM (inactive) | 19.1 µM (inactive) | > 100 µM (inactive) | 17.4 µM (inactive)
8 | Cc1[nH]c2c(c1C)S(=O)(=O)c1cc3ccccc3nc1N2 | 16.6 µM (inactive) | 73.8 µM (inactive) | 29.5 µM (inactive) | 69.8 µM (inactive) | 22.1 µM |  | 20 µM (inactive) | 26.4 µM (inactive) | > 100 µM (inactive) | 16.6 µM (inactive) | 18.7 µM (inactive) | 21.4 µM (inactive) | 19.3 µM (inactive) | 14.6 µM (inactive) | 26.2 µM (inactive) | > 100 µM (inactive) | 35.9 µM (inactive) | 10.1 µM (inactive) | 27.8 µM (inactive)
9 | CC1CC(OP(=O)(OCc2ccccc2)OCc2ccccc2)[C@@H](OCc2ccccc2)C(OCc2ccccc2)C1OCc1ccccc1 (some centres undefined) | > 100 µM (inactive) |  | 43.9 µM (inactive) | 79.3 µM (inactive) | > 100 µM | 79.8 µM (inactive) | > 100 µM (inactive) |  | 11.6 µM (inactive) | 57.5 µM (inactive) | 34.3 µM (inactive) | 81.8 µM (inactive) | 0.0555 µM (active) | 62.5 µM (inactive) | 46.8 µM (inactive) | 41.8 µM (inactive) | 76.6 µM (inactive) | 64.7 µM (inactive) | > 100 µM (inactive)
10 | c1ccc(C[P+]2(c3ccccc3)c3ccccc3-c3ccccc32)cc1 | > 100 µM (inactive) |  |  | > 100 µM (inactive) | > 100 µM | > 100 µM (inactive) | > 100 µM (inactive) | > 100 µM (inactive) | > 100 µM (inactive) |  |  | > 100 µM (inactive) | > 100 µM (inactive) | > 100 µM (inactive) | > 100 µM (inactive) |  | > 100 µM (inactive) | > 100 µM (inactive) | > 100 µM (inactive)
11 | Nc1nc(O)nc2sc3c(c12)CCCC3 | > 100 µM (inactive) |  | > 100 µM (inactive) |  | > 100 µM | 23.6 µM (inactive) | 41.1 µM (inactive) |  | 99.3 µM (inactive) | 37.8 µM (inactive) | 56.4 µM (inactive) | 46.6 µM (inactive) | > 100 µM (inactive) | > 100 µM (inactive) | 55.8 µM (inactive) | 64.9 µM (inactive) | 63.1 µM (inactive) | 87.7 µM (inactive) | 98.4 µM (inactive)
12 | OCC(O)C(Cl)CCl (centres undefined) | > 100 µM (inactive) | > 10 µM (inactive) | > 100 µM (inactive) | > 100 µM (inactive) | > 100 µM | > 100 µM (inactive) | > 100 µM (inactive) |  | > 100 µM (inactive) | 31.5 µM (inactive) | > 100 µM (inactive) | > 100 µM (inactive) |  | > 100 µM (inactive) | > 100 µM (inactive) | > 100 µM (inactive) | > 100 µM (inactive) | > 100 µM (inactive) | > 100 µM (inactive)
13 | C/C=C\C(CC(=O)OC)CC(=O)N(CCC1CN(S(=O)(=O)C(F)(F)F)c2ccccc21)Cc1ccc(OC)cc1OC (centres undefined) | > 100 µM (inactive) | > 100 µM (inactive) | > 100 µM (inactive) | > 100 µM (inactive) | > 100 µM |  | > 100 µM (inactive) | 35.7 µM (inactive) | > 100 µM (inactive) | > 100 µM (inactive) | 73.1 µM (inactive) | 57.3 µM (inactive) | > 100 µM (inactive) | > 100 µM (inactive) | > 100 µM (inactive) | > 100 µM (inactive) | > 100 µM (inactive) | > 100 µM (inactive) | > 100 µM (inactive)
14 | CCOC(=O)[C@@H]1C2C(=C[C@H]3[C@H]1C(=O)N1CCCC[C@H]31)CCCN2C(=O)OCc1ccccc1 (some centres undefined) | 54.5 µM (inactive) | 23.6 µM (inactive) | 29.9 µM (inactive) | 24.7 µM (inactive) | 32.8 µM |  | 38.8 µM (inactive) | 35 µM (inactive) | 14.3 µM (inactive) | 28.5 µM (inactive) | 23.8 µM (inactive) | 18.5 µM (inactive) | 47.8 µM (inactive) | 31.6 µM (inactive) | > 100 µM (inactive) | 29.3 µM (inactive) | 37.6 µM (inactive) | 41.3 µM (inactive) | > 100 µM (inactive)
15 | CN(C)CCNC(=O)Cn1ccc(=O)c2cc([N+](=O)[O-])ccc21 | > 100 µM (inactive) | > 100 µM (inactive) | > 100 µM (inactive) |  | > 100 µM | > 100 µM (inactive) | > 100 µM (inactive) | > 100 µM (inactive) | > 100 µM (inactive) | > 100 µM (inactive) | > 100 µM (inactive) | > 100 µM (inactive) | > 100 µM (inactive) | > 100 µM (inactive) | > 100 µM (inactive) | > 100 µM (inactive) | > 100 µM (inactive) | > 100 µM (inactive) | 
16 | CC1=C(SCc2ccccc2)C(=O)c2ccccc2C1=O | 13.2 µM (inactive) | 24 µM (inactive) | 13.6 µM (inactive) | 16.7 µM (inactive) | 18.5 µM |  |  | 14.6 µM (inactive) | 1.68 µM (inactive) | 15.5 µM (inactive) | 21.8 µM (inactive) |  | 16.6 µM (inactive) | 14.4 µM (inactive) |  | 3.18 µM (inactive) | 16.1 µM (inactive) | 12 µM (inactive) | 17.1 µM (inactive)
17 | COc1ccc(O[C@H](CO)C[C@@H]2COC(C)(C)O2)cc1 | > 100 µM (inactive) | > 100 µM (inactive) | > 100 µM (inactive) | > 100 µM (inactive) | > 100 µM |  | > 100 µM (inactive) | > 100 µM (inactive) | > 100 µM (inactive) | > 100 µM (inactive) | > 100 µM (inactive) | > 100 µM (inactive) | > 100 µM (inactive) | > 100 µM (inactive) | > 100 µM (inactive) |  | > 100 µM (inactive) | > 100 µM (inactive) | > 100 µM (inactive)
